Like-named read-outs stand apart in the source and are kept apart here.
Key:
[1] = biological target: T1, Acetylcholinesterase (EC 3.1.1.7) (Homo sapiens, UniProt P22303); assay: biochemical; assay type: biochemical; conditions: for AChE inhibition profile (in words): qualitative statement; for IC50: read-out: AChE ± SEM (IC50)
T1 construct: purchased Sigma, Pakistan
Method: (§1) All other chemicals were of analytical grade and were used as such without further purification. Acetylcholinesterase (AChE) and butyrylcholinesterase (BChE) inhibiting activities were measured according to a modified spectrophotometric method used by Ellman et al.. Protocol and assay conditions were the same as described by Rocha et al..
(§2) The Acetylthiocholine iodide and butyrylthiocholine chloride were used as substrates for investigation of acetylcholinesterase and butyrylcholinesterase assays, respectively. The 5,5′-Dithiobis[2-nitrobenzoic-acid] (DTNB) was used for the measurement of cholinesterase activity. The 0.2 mM DTNB in 62 mM sodium phosphate buffer (pH 8.0, 880 µL), test compound solution (40 µL) and acetylcholinesterase or butyrylcholinesterase solution (40 µL) were mixed and incubated for 15 minutes (25°C). The reaction was then initiated by the addition of acetylthiocholine or butyrylthiocholine (40 µL), respectively. […] All the reactions were performed in triplicate using a BMS spectrophotometer (USA). […] The final concentration of DMSO in the reaction mixture was maintained at 6%.

[2] = biological target: T2, butyrylcholinesterase (horse-serum E.C 3.1.1.8) (Equus caballus, UniProt P81908); assay: biochemical; assay type: biochemical; conditions: for BChE inhibition profile (in words): qualitative statement
T2 construct: butyrylcholinesterase (horse-serum E.C 3.1.1.8); purchased Sigma, Pakistan; host or cells: horse serum
Method: as §1, §2

[3] = acetylthiocholine iodide substrate, DTNB, pH 8.0, 25°C, 412 nm, value ± SEM
[4] = butyrylthiocholine chloride substrate, DTNB, pH 8.0, 25°C, 412 nm, value ± SEM, read-out: BChE ± SEM (IC50)

T1 sequence (P22303 32-614): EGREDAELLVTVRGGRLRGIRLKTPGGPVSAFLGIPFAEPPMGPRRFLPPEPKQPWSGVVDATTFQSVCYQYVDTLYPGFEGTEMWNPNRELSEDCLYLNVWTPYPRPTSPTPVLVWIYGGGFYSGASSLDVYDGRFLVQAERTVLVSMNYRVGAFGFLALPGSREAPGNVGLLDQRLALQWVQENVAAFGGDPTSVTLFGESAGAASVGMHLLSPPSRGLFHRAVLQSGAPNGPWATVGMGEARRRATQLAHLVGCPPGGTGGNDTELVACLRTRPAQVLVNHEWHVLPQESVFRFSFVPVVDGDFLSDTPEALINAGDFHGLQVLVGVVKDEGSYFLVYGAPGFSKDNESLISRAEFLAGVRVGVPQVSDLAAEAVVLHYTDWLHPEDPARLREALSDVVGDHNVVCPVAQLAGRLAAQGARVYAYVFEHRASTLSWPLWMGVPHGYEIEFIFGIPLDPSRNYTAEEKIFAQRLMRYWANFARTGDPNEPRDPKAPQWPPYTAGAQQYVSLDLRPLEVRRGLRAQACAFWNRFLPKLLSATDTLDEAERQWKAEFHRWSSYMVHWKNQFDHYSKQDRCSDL
T2 sequence (P81908 whole entry): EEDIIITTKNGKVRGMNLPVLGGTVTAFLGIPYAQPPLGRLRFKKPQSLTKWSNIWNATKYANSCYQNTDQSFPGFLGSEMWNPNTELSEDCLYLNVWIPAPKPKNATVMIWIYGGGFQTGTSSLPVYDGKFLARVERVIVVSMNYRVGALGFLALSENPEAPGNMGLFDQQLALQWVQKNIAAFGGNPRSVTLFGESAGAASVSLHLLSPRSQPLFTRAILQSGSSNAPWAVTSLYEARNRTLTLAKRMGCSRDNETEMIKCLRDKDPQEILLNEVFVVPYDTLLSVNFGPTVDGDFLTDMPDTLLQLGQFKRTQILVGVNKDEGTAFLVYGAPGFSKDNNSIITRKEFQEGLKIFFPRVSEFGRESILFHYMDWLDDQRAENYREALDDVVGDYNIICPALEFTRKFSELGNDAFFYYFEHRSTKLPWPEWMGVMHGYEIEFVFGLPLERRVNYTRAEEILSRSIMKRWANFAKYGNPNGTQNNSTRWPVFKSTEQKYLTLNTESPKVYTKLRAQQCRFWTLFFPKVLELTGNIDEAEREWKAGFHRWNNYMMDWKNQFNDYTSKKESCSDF

SMILES | AChE ± SEM (IC50) [1, 3] | AChE inhibition profile (in words) [1] | BChE ± SEM (IC50) ([2]; butyrylthiocholine chloride substrate, DTNB, pH 8.0, 25°C, 412 nm, value ± SEM) | BChE inhibition profile (in words) [2] | IC50 [1, 3] | IC50 [2, 4] | IC50 [2]
CCCCC(CC)COC(=O)c1ccccc1C(=O)OCC(CC)CCCC (stereo not shown) [Compound 1, bis (2-ethylhexyl phthalate] | Nil | inactive | Nil | inactive | – | – | –
CC(C)=CCc1cc(C(=O)OCC(C)(C)C)cc(CC=C(C)C)c1O [Compound 5, Neopentyl-4-hydroxy-3,5-bis [3-methyl-2-butenyl] benzoate] | – | – | – | – | 3.43 ± 0.02 µM | 9.84 ± 0.037 µM | –
CCCCCCCCOC(=O)c1ccccc1C(=O)OCCCCCCCC [Compound 2, dioctyl phthalate] | – | weak inhibition profile | – | weak inhibition profile | 8.74 ± 0.07 µM | – | 20.12 ± 0.079 µM
CCC(CCC(C)CCOC(C)=O)COC(=O)c1ccccc1C(=O)OCC(CC)CCC(C)CCOC(C)=O (stereo not shown) [Compound 3, Bis (7-acetoxy-2-ethyl-5-methylheptyl) phthalate] | – | – | – | – | 1.65 ± 0.03 µM | 5.98 ± 0.079 µM | –
CCOc1c(CC=C(C)C)cc(C(=O)OCC(C)(C)C)cc1CC=C(C)C [Compound 4, Neopentyl-4-ethoxy-3,5-bis [3-methyl-2-butenyl] benzoate] | – | weak inhibition profile | – | weak inhibition profile | 5.27 ± 0.04 µM | 14.76 ± 0.087 µM | –
